Assays:
Assay type in all cases: in vivo
Plutella xylostella = assay: Activity against Plutella xylostella (sprayed cabbage plants); conditions: 72 h, 400 ppm active ingredient, sprayed young cabbage plants, 3rd instar caterpillars, 3 days, read-out: percentage reduction in the population and in the feeding damage (% activity)
Description: (§1) Activity Against Plutella xylostella Young cabbage plants are sprayed with an aqueous emulsion spray mixture comprising 400 ppm of active ingredient and, after the spray coating has dried on, populated with 10 caterpillars (3rd instar) of Plutella xylostella and introduced into a plastic container. 3 days later, the percentage reduction in the population and in the feeding damage (% activity) are determined by comparing the number of dead caterpillars and the feeding damage between the treated and untreated plants.

Spodoptera littoralis = assay: Activity against Spodoptera littoralis (sprayed soya plants); conditions: 72 h, 400 ppm active ingredient, sprayed young soya plants, 1st instar caterpillars, 3 days, read-out: percentage reduction in the population and in the feeding damage (% activity)
Description: as §1, with “Spodoptera littoralis” for “Plutella xylostella”, “soya” for “cabbage”, “(1st” for “(3rd”

Myzus persicae = assay: Activity against Myzus persicae (foliar application); conditions: 400 ppm active ingredient, spray on infected pea seedlings, 20°, 3 and 6 days, read-out: percentage reduction in the population (% activity)
Description: Activity Against Myzus persicae (Foliar Application) Pea seedlings are infected with Myzus persicae, subsequently sprayed with a spray mixture comprising 400 ppm of active ingredient and then incubated at 20°. 3 and 6 days later, the percentage reduction in the population (% activity) is determined by comparing the number of dead aphids between the treated and untreated plants.

Diabrotica balteata = assay: Activity against Diabrotica balteata (sprayed maize seedlings); conditions: 144 h, 400 ppm active ingredient, 2nd instar larvae, 6 days, read-out: percentage reduction in the population (% activity)
Description: Activity Against Diabrotica balteata Maize seedlings are sprayed with an aqueous emulsion spray mixture comprising 400 ppm of active ingredient and, after the spray coating has dried on, populated with 10 larvae (2nd instar) of Diabrotica balteata and introduced into a plastic container. 6 days later, the percentage reduction in the population (% activity) is determined by comparing the number of dead larvae between the treated and untreated plants.

Heliothis virescens = assay: Activity against Heliothis virescens (foliar application); conditions: 144 h, 400 ppm active ingredient, sprayed young soya plants, 1st instar caterpillars, 6 days, read-out: percentage reduction in the population and in the feeding damage (% activity)
Description: as §1, with “Against Heliothis virescens (Foliar Application)” for “Against Plutella xylostella”, “Young soya” for “Young cabbage”, “caterpillars (1st” for “caterpillars (3rd”, “of Heliothis virescens” for “of Plutella xylostella”, “container. 6” for “container. 3”

Measured: inhibition at 400 ppm

CNC(=O)c1cc2ccccc2c(Br)c1NC(=O)c1cc(C(F)(F)F)nn1-c1ncccc1Cl [Compound T7.1]
> 80%: all assays above

CNC(=O)c1cc2ccccc2c(Cl)c1NC(=O)c1cc(C(F)(F)F)nn1-c1ncccc1Cl [Compound T1.1]
> 80%: all assays above
